{"source": "patent US20170360897A1", "about": "“POLYPEPTIDE AND POLYPEPTIDE COMPLEX FOR SUPPRESSING TUMOR METASTASIS AND TREATING LEUKEMIA AS WELL AS PREPARATION METHOD THEREFOR AND APPLICATION THEREOF” (National Center for Nanoscience and Technology, China, priority 2014, published 2017)", "key": {"[1]": {"test_system": "NOD/SCID mice transplanted with HL-60 cells", "conditions": "30 mg/kg subcutaneous, twice a week from day 20 after transplantation", "description": "The 5-week-old female NOD/SCID mice (purchased from the Animal Experimental Center of the Institute of Basic Medical Science, Chinese Academy of Medical Sciences) cultured in a special sterile environment were used. Prior to the experiment, animals should be acclimated to the laboratory environment for 1 week. 1×10^6 HL-60 cells were suspended in 100 μL ethylene diamine tetracetic acid sodium (EDTA)/PBS and injected intravenously into NOD/SCID mice subjected to sub-lethal irradiation (250 cGy). […] From day 20 after transplantation, the mice were injected with E5 (30 mg/kg, n=9), cyclophosphamide (CTX, 36 mg/kg, n=9), or sterile water (n=8) respectively twice a week to observe the state and weight changes of the mice, wherein E5 and sterile water were injected into mice by subcutaneous injection and cyclophosphamide was injected into mice by intraperitoneal injection."}, "U937 cells": {"test_system": "U937 cells", "conditions": "CXCL12 50 ng/mL, 24 h", "description": "(§1) HL-60 and U937 cells were harvested in logarithmic growth phase and suspended in RPMI-1640 medium without FBS. 200 μL of the suspension containing 20×10^4 cells and aqueous solutions of E5 at different concentrations were added to the upper chamber of a trans well chamber (PET microporous filter membrane with a diameter of […] was used for HL-60, and PET microporous filter membrane with a diameter of 5 μm was used for U937) so that the final concentration of the polypeptide molecule was 0.1 μM, 1.0 μM, and 10 μM respectively, and an aqueous solution was added for use as a blank control. 800 μL of the RPMI-1640 medium without FBS was added to the lower chamber, along with adding aqueous solutions of CXCL12 at concentrations of 200 ng/mL and 50 ng/mL respectively to induce HL-60 and U937 cells. The culture plates were incubated in an incubator under 37° C., 5% CO2 for 24 h. The trans well chambers were removed and the number of the migrated cells in the lower chamber was calculated."}, "HL-60 cells": {"test_system": "HL-60 cells", "conditions": "CXCL12 200 ng/mL, 24 h", "description": "as §1"}, "[2]": {"test_system": "leukemia cells HL-60 and U937 cells", "conditions": "24 h", "description": "The effect of E5 polypeptide on the apoptosis of leukemia cells HL-60 and U937 cells was examined by FITC-Annexin V/PI (eBioscience, Australia) double-staining assay. HL-60 and U937 cells were harvested in logarithmic growth phase. The cell suspensions and E5 aqueous solutions at different concentrations were added to 24-well plates. After incubation for 24 h, the cells were collected and washed with PBS. FITC-Annexin V and PI were added after the cells were resuspended in a binding buffer (10 mM Hepes/NaOH, pH 7.4, 140 mM NaCl, 2.5 mM CaCl2). After incubating for 10 min at room temperature, 1.5×10^4 cells were analyzed by flow cytometer (Accuri C6, BD, USA)."}}, "note": "Read-outs that look alike come from different tables or passages of the source. No end group written: not given here. *: point of attachment. Biotin = O=C1N[C@H]2[C@H](CS[C@H]2CCCCC(=O)*)N1", "data": [{"substance": "Biotin-GGRSFFLLRRIQGCRFRNTVDD [E5]", "values": [{"measurement": "survival time of mice versus cyclophosphamide group and control group", "setting": "[1]", "value": "longer survival time"}, {"measurement": "weight of mice versus cyclophosphamide group and control group", "setting": "[1]", "value": "much higher"}, {"measurement": "decrease of migration ability of U937 cells (longitudinal)", "setting": "U937 cells; 0.1 μM", "value": 17.00, "unit": "%"}, {"measurement": "decrease of migration ability of U937 cells (longitudinal)", "setting": "U937 cells; 1.0 μM", "value": 23.00, "unit": "%"}, {"measurement": "decrease of migration ability of U937 cells (longitudinal)", "setting": "U937 cells; 10 μM", "value": 20.00, "unit": "%"}, {"measurement": "decrease of migration ability of HL-60 cells (longitudinal)", "setting": "HL-60 cells; 0.1 μM", "value": 35.00, "unit": "%"}, {"measurement": "decrease of migration ability of HL-60 cells (longitudinal)", "setting": "HL-60 cells; 1.0 μM", "value": 39.00, "unit": "%"}, {"measurement": "decrease of migration ability of HL-60 cells (longitudinal)", "setting": "HL-60 cells; 10 μM", "value": 64.00, "unit": "%"}, {"measurement": "apoptosis rate of leukemia cells", "setting": "[2]; 50 μM", "value": 10, "unit": "%"}, {"measurement": "apoptosis rate of leukemia cells", "setting": "[2]; 80 μM", "value": 22, "unit": "%"}, {"measurement": "effect on apoptosis of leukemia cells HL-60 and U937 cells", "setting": "[2]; concentration below 20 μM", "value": "negligible"}, {"measurement": "apoptosis rate of leukemia cells", "setting": "[2]; concentration higher than 20 μM", "value": "increased rapidly"}]}]}
